The text below walks through data of patent US10351915B2 (Berg LLC, priority 2009, dated 2019).

Experiment [1] deals with PaCa-2 pancreatic cancer cells. The experiment is described as follows: Oxygen consumption rate (OCR), SeaHorse XF analyzer. In kind it is cell-based. Conditions: absence and presence of stressors. The text has this:
(§1) (SeaHorse Biosciences Inc, North Billerica, Mass.).
(§2) In contrast, cancer cells (e.g., MCF-7, PaCa-2) are inherently primed to culture at higher levels of glucose compared to normal cells due to their glycolytic phenotype for maintenance in culture.

The test system of experiment [2] is MCF-7 breast cancer cells. The description is as above. In kind it is cell-based. Conditions: absence and presence of stressors.
Description: as §1, §2

The test system of a further experiment is pancreatic cancer. Conditions: intravenous.
A further experiment has as its system Bcl2. The experiment is described as follows: Bcl2 level after CoQ-10 in the presence of VEGF. In kind it is cell-based. Conditions: normal fibroblast, co-administration with VEGF.
For experiment [3], the system named is Lactate Dehydrogenase (LDH). The experiment is described as follows: Western blot, Lactate Dehydrogenase levels. In kind it is cell-based, human. On the procedure:
In this experiment, the cells were additionally treated with either 5 mM glucose (“5G”) or 22 mM glucose (“22G”). The samples derived from the cells were processed and run on a 4-12% Bis-Tris Novex NuPAGE gel as described above. The gels were run, transferred and stained essentially as described above.
After transfer each blot was dried for 15-20 minutes, activated with methanol for 5 seconds, washed with water for 5 minutes, and TBST for 15 minutes. The blots were blocked for 1 hour with 5% blocking reagent in TBS-T at room temperature and then washed 3 times with TBS-T (1×-15′; 2×5′ each) and probed with the primary antibody for Lactate Dehydrogenase (abcam ab2101; polyclonal) in 5% BSA (at 1:1000 dilutions) by incubation overnight at 4 deg C. with shaking. After the overnight incubation with primary antibody for Lactate Dehydrogenase, the blots were washed 3 times with TBS-T (1×-15′; 2×5′ each) and probed with the secondary antibody (rabbit antigoat; 1:10,000 dilution) for 1 h at room temperature. After 1 h of incubation with secondary antibodies, the blots were washed 3 times with TBS-T (1×-15′; 2×5′ each) and then incubated with ECF reagent for 5 mins and then each blot scanned with 5100 Fuji Laser scanner at 25 uM resolution, 16 bit, green laser, at 400V and at 500 V.
In this experiment, the cells were additionally treated with either 5 mM glucose (“5G”) or 22 mM glucose (“22G”). The samples derived from the cells were processed and the gels were run, transferred, stained and scanned essentially as described above.
The levels of LDH and PDH were determined by probing the blots successively with primary antibodies for LDH and PDH, essentially as described above.
The above blots were stripped by incubating for 30 minutes with methanol, followed by two 10 minute washes with TBS-T, then 30 minutes of incubation with Stripping buffer at 50 deg C., and followed by two washes with 100 ml or more of TBS-T for 30′ each. The blots were scanned in laser scanner to check for complete stripping. […]

Read-outs that look alike come from different tables or passages of the source.

Take `COC1=C(OC)C(=O)C(C/C=C(\C)CC/C=C(\C)CC/C=C(\C)CC/C=C(\C)CC/C=C(\C)CC/C=C(\C)CC/C=C(\C)CC/C=C(\C)CC/C=C(\C)CCC=C(C)C)=C(C)C1=O` [Q10, Coenzyme Q10]: the OCR values entry in experiment [1] and in experiment [2] was “consistent reduction in OCR values” throughout. Further, the animals alive result in the experiment with pancreatic cancer (5 mg/kg (Group D), after 28 days) is “most of the animals”; in the experiment on pancreatic cancer (10 mg/kg (Group E), after 28 days) it was “most of the animals”; in the experiment with pancreatic cancer (25 mg/kg (Group F), after 28 days), “most of the animals”; with pancreatic cancer (50 mg/kg (Group G), at 28 days), “all of the animals”. The “levels of Bcl2” value with Bcl2 is listed as “no effect on the levels of Bcl2”. In experiment [3] (HepG2, 5g glucose, 24 h, amount 50), the “Lactate Dehydrogenase Normalized Volume (24 h)” value is reported as 7900. The LDH expression result in experiment [3] (cancer) was “reduced”; in experiment [3] (normal cells), “minimal effect”.
